Measured values published in patent US8663669B2, “Pesticide treatment of soils or substrates with sulphur compounds” (Arkema France, priority 2002, dated 2014).

Key:
[1] = system: Sclerotinia sclerotiorum; assay: Fungicidal efficacy by gassing, sclerotia; format: cell-based; set-up: Vitality score Nm (over 19 days): scale not given here; Reduction in viability RV / Reduction in vitality score RNm: unit not given here; conditions: for Reduction in viability RV / Reduction in vitality score RNm: compared with the control
Protocol: These four organisms are the following:
Sclerotinia sclerotiorum: polyphagous fungus which attacks mainly melon crops.
• Sclerotinia sclerotiorum: sclerotia • Sclerotium rolfsii: sclerotia • Rhizoctonia solani: colonized barley grains (mycelium and sclerotia) • Phytophthora cactorum: colonized millet grains (mycelium, sporangia and oospores) Preparation of the Fungi (24 h Before the Gassing Operation) 1. Preparation of the sclerotia of Sclerotinia sclerotiorum and of Sclerotium rolfsii: The fungi are cultured on malt agar medium until the sclerotia are obtained. The sclerotia are collected in a sterile manner and stored dry in empty Petri dishes until they are used. The sclerotia used for the trial are over 3 months old and are perfectly dormant. 2. Preparation of Phytophthora cactorum and of Rhizoctonia solani: The millet and barley used for the multiplication of the two fungi are moistened with ultrapure water by immersing for 24 hours. The grains are then slightly drained and then distributed into flasks and autoclaved (3 autoclavings at 110° C. for 20 minutes, 3 times at 24 hour intervals). Fragments of fungal culture are introduced into the flasks which are then incubated at 22° C.±2° C. (white light 18 h) until homogeneous colonization is obtained. The grains are then removed from the flasks in a sterile manner, dried in the sterile stream of a safety cabinet and then stored in the dry state until they are used. Conditions for Gassing and for Desorption
All the batches of fungi to be treated are placed for a few hours at the trial temperature (20° C.). Between 35 and 300 units of fungi or “propagules” (grains or sclerotia) are subjected to gassing during each trial.
Each fumigation chamber comprising to one or more species of fungi corresponds to a glass round-bottomed flask which is impervious to the gas and has a volume of 11 litres. Each round-bottomed flask is equipped with branch connections, one at the bottom for introducing the liquid DMDS, one at the top for collecting the air sample with a syringe.
Before introducing the gas, a partial vacuum (−500 mbar) is established in the round-bottomed flask with a vacuum pump. This makes it possible, on the one hand, to avoid the phenomenon of excess pressure due to the expansibility of DMDS in the round-bottomed flask and, on the other hand, to promote better homogeneity of the air-gas mixture in the first few seconds which follow injection. The DMDS (weighed accurately to the mg) is injected with a syringe, in liquid form, through the bottom branch connection, that is to say under the screen placed at half height of the round-bottomed flask and supporting the batches of fungi. After introducing the product, the internal pressure of the round-bottomed flask is re-established at atmospheric pressure. A magnetic stirrer operates during the entire duration of the treatment in order to properly homogenize the air-gas mixture.
At the end of the gassing, the cover for the round-bottomed flask is removed. One minute after this operation, the batches of fungi gassed are taken out and left in the open air for 15 minutes for desorption of the DMDS. They are then transferred into a Petri dish, the latter remaining open for 5 minutes to allow perfect desorption of the gas.
The mean concentration (C in g/m^3) of DMDS in the fumigation chamber after homogenization of the gas in the chamber air is measured by GC with an FID detector and, taking into account the duration of exposure (T in hours), the product CT (g·h/m^3) is calculated which, in the field of fumigation, is the key parameter to be considered, since the biological efficacy of a gas towards a given pathogenic agent is only effective if the latter was exposed to a certain mean concentration C for a certain duration of exposure T, that is to say to a certain value of the product CT, a value (or dose) which can be reached in different ways: low concentrations and long duration of exposure or conversely. […]

[2] = system: lettuce (variety Sprintia); assay: Phytotoxicity on lettuce, in a greenhouse; format: in vivo; conditions: 150 kg/ha (formulation A)
Source text: Absence of phytotoxicity on lettuce of DMDS, applied at 150 kg/ha, in the open, in a greenhouse.
Lettuce variety: Sprintia
Treatment: DMDS is applied in the form of formulation A with the aid of a jet sprayer, and then incorporated over a depth of about 5 cm with a rotary hoe. The soil is then covered with a black polyethylene film.
Planting: 7 days after the treatment, at the rate of 160 000 plants/ha
Harvesting: 2 months and 20 days after planting.

[3] = CT 1 050 g·h/m^3 (C 15.91 g/m^3, T 66 h)
[4] = CT 1 402 g·h/m^3 (C 21.24 g/m^3, T 66 h)
[5] = CT 1 450 g·h/m^3 (C 30.96 g/m^3, T 48 h)
[6] = CT 1 899 g·h/m^3 (C 28.77 g/m^3, T 66 h)
[7] = CT 1 981 g·h/m^3 (C 30.02 g/m^3, T 66 h)
[8] = CT 2 460 g·h/m^3 (C 51.25 g/m^3, T 48 h)
[9] = CT 2 471 g·h/m^3 (C 37.44 g/m^3, T 66 h)
[10] = CT 2 837 g·h/m^3 (C 42.98 g/m^3, T 66 h)
[11] = CT 2 974 g·h/m^3 (C 45.06 g/m^3, T 66 h)
[12] = CT 3 169 g·h/m^3 (C 48.02 g/m^3, T 66 h)
[13] = CT 3 467 g·h/m^3 (C 52.53 g/m^3, T 66 h), called an abnormal point
[14] = CT 419 g·h/m^3 (C 17.46 g/m^3, T 24 h)
[15] = CT 625 g·h/m^3 (C 26.04 g/m^3, T 24 h)
[16] = CT 703 g·h/m^3 (C 29.29 g/m^3, T 24 h)
[17] = CT 907 g·h/m^3 (C 37.79 g/m^3, T 24 h)

CSSC [DMDS, dimethyl disulphide]
Viability V [1, 3]: 41.8% | Vitality score Nm (over 19 days) [1, 3]: 5.1 | Reduction in viability RV [1, 3]: 56.1 | Reduction in vitality score RNm [1, 3]: 63.6 | Viability V [1, 4]: 46.8% | Vitality score Nm (over 19 days) [1, 4]: 1.3 | Reduction in viability RV [1, 4]: 50.9 | Reduction in vitality score RNm [1, 4]: 90.6 | Viability V [1, 5]: 29.8% | Vitality score Nm (over 19 days) [1, 5]: 1.0 | Reduction in viability RV [1, 5]: 65.8 | Reduction in vitality score RNm [1, 5]: 92.1 | Viability V [1, 6]: 29.6% | Vitality score Nm (over 19 days) [1, 6]: 3.6 | Reduction in viability RV [1, 6]: 68.9 | Reduction in vitality score RNm [1, 6]: 74.8 | Viability V [1, 7]: 20.3% | Vitality score Nm (over 19 days) [1, 7]: 2.7 | Reduction in viability RV [1, 7]: 78.7 | Reduction in vitality score RNm [1, 7]: 81.2 | Viability V [1, 8]: 14.6% | Vitality score Nm (over 19 days) [1, 8]: 0.7 | Reduction in viability RV [1, 8]: 83.2 | Reduction in vitality score RNm [1, 8]: 94.9 | Viability V [1, 9]: 32.9% | Vitality score Nm (over 19 days) [1, 9]: 4.6 | Reduction in viability RV [1, 9]: 67.1 | Reduction in vitality score RNm [1, 9]: 70.5 | Viability V [1, 10]: 14.1% | Vitality score Nm (over 19 days) [1, 10]: 1.8 | Reduction in viability RV [1, 10]: 85.2 | Reduction in vitality score RNm [1, 10]: 87.5 | Viability V [1, 11]: 11.2% | Vitality score Nm (over 19 days) [1, 11]: 1.6 | Reduction in viability RV [1, 11]: 88.8 | Reduction in vitality score RNm [1, 11]: 89.9 | Viability V [1, 12]: 0% | Vitality score Nm (over 19 days) [1, 12]: 0 | Reduction in viability RV [1, 12]: 100 | Reduction in vitality score RNm [1, 12]: 100 | Viability V [1, 13]: 32.3% | Vitality score Nm (over 19 days) [1, 13]: 3.3 | Reduction in viability RV [1, 13]: 67.7 | Reduction in vitality score RNm [1, 13]: 79.0 | Viability V [1, 14]: 89.7% | Vitality score Nm (over 19 days) [1, 14]: 13.3 | Reduction in viability RV [1, 14]: −3.0 | Reduction in vitality score RNm [1, 14]: −3.6 | Viability V [1, 15]: 87.8% | Vitality score Nm (over 19 days) [1, 15]: 12.8 | Reduction in viability RV [1, 15]: −0.8 | Reduction in vitality score RNm [1, 15]: 0.1 | Viability V [1, 16]: 85.4% | Vitality score Nm (over 19 days) [1, 16]: 12.6 | Reduction in viability RV [1, 16]: 2.0 | Reduction in vitality score RNm [1, 16]: 2.2 | Viability V [1, 17]: 81.6% | Vitality score Nm (over 19 days) [1, 17]: 12.0 | Reduction in viability RV [1, 17]: 6.3 | Reduction in vitality score RNm [1, 17]: 6.6 | Visual observations on the field: sign of phytotoxicity ([2]; 1 and 2 months after planting): no sign of phytotoxicity | Average weight of the lettuce at harvest ([2]; harvest 2 months and 20 days after planting, control 490 g): 505 g
